These results are taken from patent publication US20040167226A1, “Methods for the treatment of pain and traumatic injury using benzamides and compositions containing the same” (priority 2002, published 2004).

Entries after “also recorded” stand apart in the source; their conditions may differ.

The bioavailability is dose-corrected exposure relative to a reference, in per cent. The AUC(0-inf) is the area under the concentration-time curve extrapolated to infinity. What is called Cmax is the maximum level reached in the sampled fluid or tissue. The term Tmax denotes the time from dosing to the highest level.

Data set [1] is described as follows: Absolute oral bioavailability and blood t1/2 of Compound A. Format: in vivo, rats. To be noted: rat, whole blood. The method, then: The absolute oral bioavailability of Compound A was determined by comparing the area-under-the-curve (“AUC”) following a 20 mg/kg IV dose of Compound A (2 ml/kg, 75% PEG solution) to a 20 mg/kg dose of Compound A dissolved in 1% methyl cellulose. Blood concentrations were determined at 0, 0.083, 0.15, 0.5, 1, 2, 4, 8, and 24 hours post-IV dose and 0, 0.5, 1, 2, 4 and 8 hours post-oral dose. Four animals were dosed orally and four animals were dosed intravenously.
In another experiment, six rats were orally dosed with 30 mg/kg of Compound A dissolved in 1% methyl cellulose. Blood samples were taken at 0.5, 1, 2, 5, 8, 12, 16, 20 and 24 hours. The apparent t1/2 for Compound A in the blood was 8 hours. This is a very long t1/2 for a drug in rats and is a good predictor of once-a-day dosing for Compound A in humans. Such a dosing regimen would be a significant therapeutic advantage in the clinic.
The blood samples were analyzed by HPLC. Detection was by UV at 262 nm. Responses were converted to concentrations by comparison to responses from calibration standards injected onto the column. The resulting concentrations were used to calculate the AUC.

Data set [2] in a line: PK parameter estimates, 30 mg/kg po in 1% methyl cellulose. Format: in vivo, rats. An excerpt:
The time course of plasma concentration of compound N is depicted in FIG. 1 as well.

In data set [3] the test system is dorsal hemisection spinal cord injury. The data set is described as follows: Spinal cord injury, T8 dorsal hemisection / over dorsal hemisection, BBB locomotor score. The class given is in vivo, Sprague-Dawley rats. To be noted: rats. The method, then: (§1) Compound A was tested in both the rat dorsal hemisection (Guth, L. et al. (1980), J. Neurosurgery 52: 73-86) and contusion models (Scheff, S. W. (2003), J. Neurotrauma 20: 179-193) for evaluation of efficacy. These models are widely used in the field of spinal cord injury and replicate many of the pathological aspects found in humans who have sustained a spinal cord injury. Rats were subjected to an experimental spinal cord injury at T8, and were given Compound A shortly thereafter. Behavioral tests to assess the locomotion deficits were performed after the lesion. At the end of the experiment, animals were sacrificed and the spinal cord was collected for histopathological analysis. […] Histological assessment of the tissue at the site of injury was also made in both the drug treated and untreated group. In particular, subsequent to the behavioral measurement, spinal cord tissue from each animal was obtained and serial transverse tissue sections were stained with either anti-neurofilament antibody or antibodies specific for the inflammatory markers, tumor necrosis factor alpha (TNFα) and for the inducible form of nitric oxide synthetase (iNOS), followed by incubation with Alexa Fluor®-conjugated secondary antibodies.
Female rats (Sprague-Dawley, 250-300 g) were purchased from Charles River. One week before spinal cord injury, the animals were both trained and had baseline measures taken on a locomotor behavioral test, the BBB test (Beattie Basso Bresnahan method) (Basso, D. M. et al. (1995), J. Neurotrauma 12(1): 1-21).
The BBB score is a 21-point scale representing 21 stages of locomotor recovery after spinal cord injury. The scale is based on unique combinations of scored behaviors, ranked according to time of appearance after injury. The score can be divided into three parts: from 0-8, the scores emphasize voluntary movements of hindlimb joints; from 8-14, the scores represent standing and stepping with progressively better forelimb-hindlimb coordination; from 15-21, the scores indicate greater strength and better foot placement and balance. […]

A further data set relates to iNOS. The data set is described as follows: Immunohistochemistry for inflammatory marker iNOS on contused spinal cord. Format: in vivo. To be noted: rats after contusion injury; 72 h post-injury, 1 mm caudal to epicenter. The method, then:
as §1
Histological assessment of the tissue at the site of injury was also made in both the drug treated and untreated group. […]

A short description of data set [4]: Brain-blood distribution of Compound A in the squirrel monkey. The class given is in vivo. To be noted: brain / whole blood, twice-daily 10 mg/kg po for 5 weeks, 24 h post-dose, n = 12, read-out: Brain/Blood Ratio (Mean ± SD). The method, then:
Blood-brain distribution of Compound A was assessed in the mouse, rat, and squirrel monkey by determining the concentrations of Compound A in blood and brain tissue at specific times post dose. Rats and mice received a single po dose of 30 mg/kg. The monkeys received a twice-daily 10 mg/kg po dose of Compound A for a total of 5 weeks prior to sacrifice. Brain to blood ratios for Compound A, as shown below in Table 4, show high penetration of the blood-brain barrier.

The mark [5] stands for this setting: rat, plasma, rats, 30 mg/kg po in 1% methyl cellulose, n = 3.

With `CC(=O)Nc1ccc(C(=O)NC(C)(C)C)cc1` [Compound A, N-tert-butyl-4-acetamidobenzamide], in data set [1] (AUC of 20 mg/kg oral (1% methyl cellulose) vs 20 mg/kg IV (75% PEG), read-out: absolute bioavailability through oral dosing), the bioavailability stood at 52%. Moreover, the half-life in data set [1] (rats, 30 mg/kg oral in 1% methyl cellulose, read-out: apparent t1/2 in the blood (converted)) was 480 min; in data set [2] (rat, plasma, rats, 30 mg/kg po in 1% methyl cellulose, n = 3, read-out: Elim.t1/2 (converted)), 660 min. Also, the “bioavailability (in words)” value in data set [2] (additional series of bioavailability experiments) is listed as “excellent bioavailability”. The AUC(0-inf) in data set [2] (setting [5]) is 745 µg·h/mL. Also, the maximum concentration (Cmax) in data set [2] (setting [5]) was 34000 ng/mL. The Tmax in data set [2] (setting [5]) was 8 h. In addition, the “neurological function, BBB score” value was “significant improvement in neurological function” in data set [3] (SCI Study No. 1, 14 day dorsal hemisection (1.5 mm), i.p. BID 5 days, 75% PEG200 formulation); “significant improvement in neurological function” in data set [3] (SCI Study No. 2, 21 day over dorsal hemisection (2 mm), 20 mg/kg BID i.p. 5 days, 75% PEG200 formulation); “significant improvement in neurological function; also recorded: robust acute and long-term effects up to 5 weeks” in data set [3] (SCI Study No. 3, 5 week over dorsal hemisection, 20 mg/kg BID i.p. 5 days, 50% PEG400/25% ETOH/25% dH2O, 20 mg/kg). Also, the “inflammatory marker iNOS in the region of the corticospinal tract vs untreated control” value in the data set on iNOS is on record as “decreased”. Further, the Kp at 24 h in data set [4] came to 0.88 ± 0.09.
